Entries after “also recorded” stand apart in the source; their conditions may differ.
Tests used:
isolated rat myocytes = assay: Nifedipine and KB-R7943 sensitive 45Ca influx; assay type: cell-based
Protocol: The reaction was stopped by adding 5 mM EGTA on ice and cells were washed and spun at 4000 rpm for 2 min (×3) to remove extracellular ^45Ca. Net intracellular counts per minute (cpm) of ^45Ca for each sample was determined by using a β-scintillation counter and the concentration of ^45Ca was calculated as described previously (20).

[1] = system: isolated rat cardiac myocytes; assay: Sodium Green fluorescence (intracellular Na+); assay type: cell-based
Protocol: The final concentration of Sodium Green in each sample tube was 10 μM during the incubation. The myocytes were then transferred to 96-well plates (Nunc) and the measurement of Sodium Green fluorescence was carried out by excitation at 485 nm and quantifying emission at 535 nm using a VICTOR-II multilabel counter (PerkinElmer Life Sciences).

[2] = system: Spontaneously Hypertensive Heart Failure (SHHF) rats; assay: Immunization of late-stage SHHF rats, heart function by echo; assay type: in vivo; settings: 14 months old SHHF rats, control rat died
Protocol: Studies were also conducted on the ability of NKA alpha subunit peptides to induce a therapeutic immune response in late-stage Spontaneously Hypertensive Heart Failure (SHHF) rats. The SHHF rats used for this study were 14 months old with late-stage heart failure. The heart function was measured by echo and expressed as percent of fractional shortening (FS %). The initial heart functions were 26.0% and 28.0% for control SHHF rat and the one with immunization, respectively. […] The peptide with which the rats were immunized has the following amino acid sequence […] (SEQ ID NO:7), as disclosed in U.S. Pat. No. 7,754,210.

[3] = system: isolated rat cardiac myocytes; assay: Rat myocyte contractility (cell shortening); assay type: cell-based; settings: 0.1 mM PB2948 + 0.5 μM JY2948
Description: Rat ventricular myocytes were isolated as described (18). The contraction amplitude was indexed by the percentage shortening of cell length (19).

NKA β1 subunit = assay: Specificity analysis by Western blotting; assay type: binding, pig, dog, rat; settings: PB2948
Protocol: Samples of purified rat and dog NKA, along with SDS-stripped pig α1 and β1 subunits (30 μg each) were mixed with electrophoresis sample buffer separately, boiled for 5 min, and loaded on freshly made 7.5% SDS-PAGE gel. Following electrophoresis, the samples were transferred from the SDS gel to a nitrocellulose membrane (0.45 μm). […] The membranes were then washed and incubated with secondary antibody (1:7500) for 1 hour. The color was then developed for visual analysis.

N=C(N)SCCc1ccc(OCc2ccc([N+](=O)[O-])cc2)cc1 [KB-R7943]
effect on JY2948-induced 45Ca influx (isolated rat myocytes; KB-R7943 (5 μM)): failed to inhibit | changes of 45Ca concentration compared with control cell background (isolated rat myocytes; KB-R7943 alone (504 [sic])): No significant changes | Sodium Green fluorescence intensity ([1]; 5 μM KB-R7943 alone, control 100): 99±10% | Sodium Green fluorescence intensity ([1]; 30 μM KB-R7943 alone, control 100): 102±7.0%

C[C@@H]1O[C@@H](O[C@H]2C[C@@H](O)[C@]3(CO)[C@H]4[C@H](O)C[C@]5(C)[C@@H](C6=CC(=O)OC6)CC[C@]5(O)[C@@H]4CC[C@]3(O)C2)[C@H](O)[C@H](O)[C@H]1O [ouabain]
ouabain-induced 45Ca influx relative to JY2948/β1 subunit-induced influx (isolated rat myocytes): 4.4 fold | share of ouabain-induced 45Ca influx through LTCC (isolated rat myocytes): approximately 40% | share of ouabain-induced 45Ca influx through NCX (isolated rat myocytes): ~60% | 45Ca influx (isolated rat myocytes; ouabain 2.5 mM alone): 330±6.4 pCi | nifedipine-resistant 45Ca influx (isolated rat myocytes; ouabain + 10 μM nifedipine): 188±78 pCi | ouabain-induced 45Ca influx (isolated rat myocytes; ouabain + both nifedipine and KB-R7943): completely impeded; also recorded: completely abolished | Sodium Green fluorescence intensity ([1]; ouabain (2.5 mM)): 136±13% | Sodium Green fluorescence intensity ([1]; ouabain + 5 μM KB-R7943): 153±19% | Sodium Green fluorescence intensity ([1]; ouabain + 30 μM KB-R7943): 151±23%

DVEDSYGQQWTYEQR (chemically-synthesized antigen) [SEQ ID NO:7, NKA alpha subunit peptide used to immunize SHHF rats, disclosed in U.S. Pat. No. 7,754,210]
late-stage SHHF rat cardiac function (fractional shortening, FS %) [2]: significantly improved

KERGEFNHERGER (listed as Rattus norvegicus) [PB2948]
JY2948-induced positive inotropic effect in the presence of peptide blocker [3]: completely eliminated | interaction between JY2948 and native β1 subunit in presence of peptide blocker (NKA β1 subunit): completely abolished

Source: patent publication US10214583B2, “Sodium pump antibody agonists and methods of treating heart disease using the same” (priority 2011, dated 2019)
